Measured values taken from ChEMBL document CHEMBL1201862, “PubChem BioAssay data set” (2004).
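Each compound was tested at five concentrations against cells in 96-well plates for 48 hours. Here, GI50 denotes the concentration required for 50% inhibition of growth.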 Calls of active or inactive are those of the source. Rule as the data show it: active = GI50 up to about 1.1 µM and inactive = higher.

Columns and labels:
Test in all cases: NCI tumour cell line growth inhibition, 48 h
HCT-116 = test system: HCT-116
OVCAR-8 = test system: OVCAR-8
UACC-257 = test system: UACC-257
HOP-92 = test system: HOP-92
SF-295 = test system: SF-295
Malme-3M = test system: Malme-3M
BT-549 = test system: BT-549
T47D = test system: T47D
SF-539 = test system: SF-539
Hs-578T = test system: Hs-578T
RXF 393 = test system: RXF 393
786-0 = test system: 786-0
SK-OV-3 = test system: SK-OV-3
MDA-MB-231 = test system: MDA-MB-231
RPMI-8226 = test system: RPMI-8226
A549 = test system: A549
M14 = test system: M14
SNB-19 = test system: SNB-19
NCI-H226 = test system: NCI-H226
CCRF-CEM = test system: CCRF-CEM

Measured: GI50

COc1cc2oc(=O)cc(C)c2cc1[N+](=O)[O-]
inactive: HCT-116 15.3 µM | OVCAR-8 18.8 µM | UACC-257 16.3 µM | HOP-92 17.1 µM | SF-295 51.4 µM | Malme-3M 20.1 µM | BT-549 16.7 µM | T47D 20.7 µM | SF-539 23.8 µM | Hs-578T 28.2 µM | RXF 393 15.1 µM | 786-0 17.5 µM | SK-OV-3 84.1 µM | MDA-MB-231 22.4 µM | RPMI-8226 27 µM | A549 > 90.4 µM | M14 16.7 µM | SNB-19 > 83.6 µM | NCI-H226 8.77 µM | CCRF-CEM 17.8 µM

COc1ccc(C2OCCN2C)cc1 (stereo not given)
inactive: HCT-116 > 100 µM | OVCAR-8 > 100 µM | UACC-257 > 100 µM | HOP-92 > 100 µM | SF-295 > 100 µM | Malme-3M > 100 µM | BT-549 > 100 µM | T47D > 100 µM | SF-539 > 100 µM | Hs-578T > 100 µM | RXF 393 > 100 µM | 786-0 > 100 µM | SK-OV-3 > 100 µM | MDA-MB-231 > 100 µM | RPMI-8226 > 100 µM | A549 > 100 µM | M14 > 100 µM | SNB-19 > 100 µM | NCI-H226 > 100 µM | CCRF-CEM > 100 µM

N#Cc1c(Nc2ccccc2)[n+]([O-])c2ccc(Cl)cc2[n+]1[O-]
inactive: HCT-116 3.88 µM | OVCAR-8 2.77 µM | UACC-257 7.28 µM | HOP-92 1.73 µM | SF-295 4.52 µM | Malme-3M 7.59 µM | BT-549 3.44 µM | T47D 6.65 µM | SF-539 5.22 µM | Hs-578T 16.6 µM | RXF 393 9.77 µM | 786-0 5.25 µM | SK-OV-3 21.2 µM | MDA-MB-231 9.53 µM | RPMI-8226 3.28 µM | A549 9.86 µM | M14 7.57 µM | SNB-19 5.51 µM | NCI-H226 4.67 µM | CCRF-CEM 2.92 µM

COC(=O)/C=C(/C(=O)OC)c1cc2ccc3c([nH]c4ccccc43)c(C)c-2c1
inactive: HCT-116 4.49 µM | OVCAR-8 3.03 µM | UACC-257 6.95 µM | HOP-92 1.21 µM | SF-295 4.12 µM | Malme-3M 5.21 µM | BT-549 4.78 µM | T47D 3.6 µM | SF-539 11.4 µM | Hs-578T 3.41 µM | RXF 393 7.31 µM | 786-0 4.78 µM | SK-OV-3 7.69 µM | MDA-MB-231 3.8 µM | RPMI-8226 3.72 µM | A549 4.73 µM | M14 4.37 µM | SNB-19 9.29 µM | NCI-H226 5.98 µM | CCRF-CEM 2.9 µM
